Assay results as given in ChEMBL document CHEMBL5608177, “Antitumor activity and transcriptome sequencing (RNA-seq) analyses of hepatocellular carcinoma cells in response to exposure triterpene-nucleoside conjugates” (Eur J Med Chem, 2024).
Converted amounts (≈) assume the structure as drawn. The source made the active and inactive calls. No cut-off for these calls is given here.

Experiments:
SMMC-7721 [1] = assay: Induction of apoptosis in human SMMC-7721 cells assessed as early apoptotic cells at 20 uM incubated for 24 hrs by Annexin V-FITC and propidium iodide staining based flow cytometric analysis (reference value: 0.28 %); type: functional
SMMC-7721 [2] = assay: Antitumor activity against human SMMC-7721 cells xenografted in BALB/c mouse assessed as inhibition of tumor growth at 10 mg/kg,ip administrated daily for 3 weeks relative to control; type: functional; design: scale not given: the % may be the effect or the level left
HepG2 = assay: Antiproliferative activity against human HepG2 cells assessed as inhibition of cell growth incubated for 48 hrs by CCK-8 reagent based spectrophotometric analysis; type: functional; conditions: HepG2, 48 h
SMMC-7721 [3] = assay: Induction of apoptosis in human SMMC-7721 cells assessed as upregulation of LC3 expression incubated for 24 hrs by Western blotting analysis; type: functional, cell-based
SMMC-7721 [4] = assay: Induction of apoptosis in human SMMC-7721 cells assessed as downregulation of BCL-2 expression at 15 uM incubated for 24 hrs by Western blotting analysis; type: functional, cell-based
SMMC-7721 [5] = assay: Antitumor activity against human SMMC-7721 cells xenografted in BALB/c mouse assessed as reduction in tumor growth at 10 mg/kg,ip administrated for 3 weeks; type: functional, organism-based
SMMC-7721 [6] = assay: Induction of apoptosis in human SMMC-7721 cells assessed as upregulation of Bax/Bcl-2 ratio incubated for 24 hrs by Western blotting analysis; type: functional, cell-based
SMMC-7721 [7] = assay: Induction of apoptosis in human SMMC-7721 cells assessed as necrotic cells at 15 uM incubated for 24 hrs in presence of 3-MA by Annexin V-FITC and propidium iodide staining based flow cytometric analysis (reference value: 0.65 %); type: functional
SMMC-7721 [8] = assay: Induction of apoptosis in human SMMC-7721 cells assessed as viable cells at 15 uM incubated for 24 hrs by Annexin V-FITC and propidium iodide staining based flow cytometric analysis (reference value: 99.2 %); type: functional; conditions: read-out: Activity
[9] = Aqueous solubility of the compound in […] by HPLC analysis; type: physicochemical
SW-620 = assay: Antiproliferative activity against human SW620 cells assessed as inhibition of cell growth incubated for 48 hrs by CCK-8 reagent based spectrophotometric analysis; type: functional; conditions: SW-620, 48 h
SMMC-7721 [10] = assay: Induction of apoptosis in human SMMC-7721 cells at 10 uM incubated for 24 hrs by Annexin V-FITC and propidium iodide staining based flow cytometric analysis relative to control; type: functional
SMMC-7721 [11] = assay: Induction of apoptosis in human SMMC-7721 cells assessed as viable cells at 15 uM incubated for 24 hrs in presence of Nec1 by Annexin V-FITC and propidium iodide staining based flow cytometric analysis (reference value: 99.2 %); type: functional; conditions: read-out: Activity
SMMC-7721 [12] = assay: Induction of apoptosis in human SMMC-7721 cells assessed as upregulation of Bax expression incubated for 24 hrs by Western blotting analysis; type: functional, cell-based
[13] = Inhibition of PI3K/AKT/mTOR signalling pathway in human SMMC-7721 cells at 10 uM incubated for 24 hrs by transcriptome analysis; type: cell-based
SMMC-7721 [14] = assay: Induction of apoptosis in human SMMC-7721 cells assessed as necrotic cells at 15 uM incubated for 24 hrs in presence of Nec1 by Annexin V-FITC and propidium iodide staining based flow cytometric analysis (reference value: 0.65 %); type: functional
SMMC-7721 [15] = assay: Antitumor activity against human SMMC-7721 cells xenografted in BALB/c mouse assessed as reduction in tumor weight at 10 mg/kg,ip administrated for 3 weeks; type: functional, organism-based
SMMC-7721 [16] = assay: Antitumor activity against human GFP-stained SMMC-7721 cells inoculated in zebrafish larvae assessed as reduction in tumor growth at 5 to 20 uM incubated for 48 hrs by confocal laser scanning microscopy; type: functional, cell-based; conditions: dose 5-20 µM
SMMC-7721 [17] = assay: Induction of autophagy in human SMMC-7721 cells assessed as cell structure destruction at 10 uM incubated for 24 hrs by TEM analysis; type: functional, cell-based
HeLa = assay: Antiproliferative activity against human HeLa cells assessed as inhibition of cell growth incubated for 48 hrs by CCK-8 reagent based spectrophotometric analysis; type: functional
[18] = Toxicity in BALB/c mouse xenografted with human SMMC-7721 cells assessed as change in body weight at 10 mg/kg,ip administrated daily for 3 weeks; type: organism-based; conditions: in vivo, 504 h
[19] = Toxicity in Zebrafish embryo assessed as reduction in survival rate at upto 100 uM incubated for 48 hrs by microscopic analysis; design: species or system Danio rerio; conditions: in vivo
SMMC-7721 [20] = assay: Induction of apoptosis in human SMMC-7721 cells assessed as upregulation of Bax/Bcl-2 ratio at 20 uM incubated for 24 hrs by Western blotting analysis; type: functional, cell-based
SMMC-7721 [21] = assay: Induction of apoptosis in human SMMC-7721 cells at 20 uM incubated for 24 hrs by Annexin V-FITC and propidium iodide staining based flow cytometric analysis relative to control; type: functional
SMMC-7721 [22] = assay: Antitumor activity against human SMMC-7721 cells xenografted in BALB/c mouse assessed as reduction in tumor weight at 10 mg/kg,ip administrated daily for 3 weeks (reference value: 0.573 +/- 0.137 g); type: functional
SMMC-7721 [23] = assay: Antitumor activity against human GFP-stained SMMC-7721 cells inoculated in zebrafish larvae assessed as reduction in tumor growth by measuring survival rate at 10 uM incubated for 48 hrs by confocal laser scanning microscopy; type: functional
SMMC-7721 [24] = assay: Antitumor activity against human GFP-stained SMMC-7721 cells inoculated in zebrafish larvae assessed as reduction in tumor growth at < 10 uM incubated for 48 hrs by confocal laser scanning microscopy; type: functional, cell-based
[25] = Toxicity in Zebrafish embryo assessed as reduction in survival rate at >= 30 uM incubated for 48 hrs by microscopic analysis relative to control; design: species or system Danio rerio; conditions: zebrafish embryos

## C=C(C)[C@@H]1CC[C@]2(C(=O)OC)CC[C@]3(C)[C@H](CC[C@@H]4[C@@]5(C)C[C@@H](Cc6cn([C@H]7C[C@H](n8cc(C)c(O)nc8=O)O[C@@H]7CO)nn6)C(=O)C(C)(C)[C@@H]5CC[C@]43C)[C@@H]12
SMMC-7721 [1]
  Activity: 0.089%
SMMC-7721 [2]
  Activity: 52%
HepG2
  IC50: 9.55 µM
SMMC-7721 [3]
  Activity: Dose-Dependent Effect
SMMC-7721 [4]
  Activity: Active
SMMC-7721 [5]
  Activity: Active
SMMC-7721 [6]
  Activity: Dose-Dependent Effect
SMMC-7721 [7]
  Activity: 1.77%
SMMC-7721 [8]
  viability at 15 µM: 68.2%
[9]
  solubility: 2.56 µM (≈ 1.98 µg/mL)
SW-620
  IC50: 4.61 µM
SMMC-7721 [10]
  Activity: 0.54%
SMMC-7721 [11]
  viability at 15 µM: 83.6%
SMMC-7721 [12]
  Activity: Dose-Dependent Effect
[13]
  inhibition: Active
SMMC-7721 [14]
  Activity: 5.17%
SMMC-7721 [15]
  Activity: Active
SMMC-7721 [16]
  Activity: Active
SMMC-7721 [17]
  Activity: Active
HeLa
  IC50: 6.07 µM
[18]
  Activity: Non-Toxic
[19]
  Activity: Non-Toxic
SMMC-7721 [20]
  Activity: Active
SMMC-7721 [21]
  Activity: 0.54%
SMMC-7721 [22]
  Activity: 0.275 g

## C=C(C)[C@@H]1CC[C@]2(C(=O)OC)CC[C@]3(C)[C@H](CC[C@@H]4[C@@]5(C)C[C@@H](Cc6cn([C@]7(CO)O[C@@H](n8ccc(O)nc8=O)[C@@H](F)[C@@H]7O)nn6)C(=O)C(C)(C)[C@@H]5CC[C@]43C)[C@@H]12
SMMC-7721 [1]
  Activity: 0.43%
HepG2
  IC50: 23.7 µM
SMMC-7721 [23]
  Activity: 85%
SMMC-7721 [24]
  Activity: inactive
SMMC-7721 [7]
  Activity: 11.2%
SMMC-7721 [8]
  viability at 15 µM: 72.8%
SW-620
  IC50: 10.9 µM
SMMC-7721 [10]
  Activity: 0.42%
SMMC-7721 [11]
  viability at 15 µM: 87.4%
SMMC-7721 [14]
  Activity: 3.24%
SMMC-7721 [17]
  Activity: Active
HeLa
  IC50: 11.8 µM
[19]
  Activity: Non-Toxic
[25]
  survival at 48 h, 30 µM: < 25%
SMMC-7721 [21]
  Activity: 0.42%
